Laboratory results as given in US11040106B2, “Conjugates of kinase inhibitors and cyanine dyes” (priority 2018, dated 2021).
“Also recorded” adds a separate entry of the source. Like-named read-outs stand apart in the source and are kept apart here.

How the values were obtained:
Solubility in water = format: physicochemical
Protocol: 1-NMe2 is water soluble up until 1000 μM whereas 1-CH2 precipitates at 100 μM.

U87-MG cells [1] = test: Cytotoxicity of ICG, MHI-148 and QCy, 72 h in the dark, AlamarBlue; format: cell-based, human
Description: Cytotoxicity of QCy was studied using U87-MG cells (a glioblastoma multiforme line).

[2] = Aggregation: concentration dependence of absorbance spectra; format: physicochemical; settings: 1.25-20 μM, 10 mM pH 7.4 PBS
Protocol: FIGS. 37A and 37B show concentration dependence of absorbance spectra in the range 1.25-20 μM in 10 mM pH 7.4 PBS buffer a, (B) MHI-148 and b, (1) QCy.
Shoulders of that kind and indicative of H-aggregates, ie associative oligomers in which the transition moments of the monomers are not well aligned leading to […] (blue) shifts. Concentration dependences of absorbance spectra of QCy and MHI-148 (structurally the closest) were determined to explore H-aggregation further.

Photophysical properties = format: physicochemical
[3] = Photostability under LED irradiation at 780 nm; format: physicochemical; settings: PBS pH 7.4, LED 780 nm
Protocol: Initially, equimolar concentrations (20 μM) were used; QCy was reproducibly and more robust than the other two, but the difference was more than anticipated so the experimental design was suspected.

[4] = tested on: U87-MG glioblastoma cells; test: Organelle localization of the fluors (confocal imaging); format: cell-based, human; settings: 37° C., DMEM/F12 with 10% FBS pH 7.4
[5] = tested on: MDA-MB-231 “triple negative” breast cancer cells; test: Cytotoxicity (cell viability) on MDA-MB-231 cells; format: cell-based; settings: MDA-MB-231 (breast cancer cells)
U87-MG cells [6] = test: Cytotoxicity (cell viability) on U87-MG cells; format: cell-based
HEPG2 cells = test: Cytotoxicity (cell viability, MTT assay) on HEPG2 cells; format: cell-based; settings: HEPG2 cells (liver cancer)
Protocol: Approximately 5000 HEPG2 cells/well were seeded on 96 well plate containing 10% fetal bovine serum. Cells were allowed to adhere overnight before test compounds were added. Stock solutions of 1a (0.02 M in DMSO) were diluted with protein-free medium (PFHM-II) to make desired final concentrations varying from 0.01 to 80 μM. The cells were incubated with the desired concentration for 48 h. The cell viabilities were calculated using MTT assay. Briefly, 20 μL of 3-(4,5-dimethylthiazol-2-yl)-2,5-diphenyltetrazolium bromide MTT (5 mg/mL, in Hank's balanced salt solution) were added and the cells were incubated for an additional 3.5 h. The medium was then removed, and […] of DMSO was added to dissolve the formazan crystal formed. The optical density of each well (at 570 nm) was measured with a BioTek Synergy 4 Microplate Reader. The viability of each cell line in response to the treatment with tested compounds was calculated as: % dead cells=100−(OD treated/OD control)×100.

K562 leukemia cells = test: Cytotoxicity (cell viability) on K562 cells; format: cell-based
[7] = tested on: U87-MG (Glioblastoma) cells as compared to HUVEC (normal cells); test: Uptake by U87-MG cells as compared to HUVEC; format: cell-based, human
HUVEC = test: Light and dark toxicity on HUVEC; format: cell-based; settings: 1 h incubation, 10 minutes irradiation
Description: HUVEC cells are non-carcinogentic, “normal” […] cells.

[8] = tested on: U87-MG (Glioblastoma) cells; test: Light and dark toxicity on U87-MG cells; format: cell-based, human

Structure (SMILES): CC1(C)C(=CC=C2C[N+](C)(C)CC(C=CC3=[N+](CCCCCC(=O)O)c4ccccc4C3(C)C)=C2Cl)N(CCCCCC(=O)O)c2ccccc21 [QCy]
- water solubility (in words) (Solubility in water): more water soluble than MHI-148
- water soluble up until (concentration) (Solubility in water): ≤ 1000 µM
- water solubility (in words) (Solubility in water; listed as 1-NMe2): significantly more soluble in water than 1-CH2
- IC50 (U87-MG cells [1]): > 80 µM
- cytotoxicity (in words) (U87-MG cells [1]): not very toxic until 80 μM
- aggregation (H-aggregates) in aqueous media [2]: less prone to aggregation in aqueous media than MHI-148; also recorded: considerably less aggregated than MHI-148
- fluorescence quantum yield relative to ICG (Photophysical properties): about three times greater
- absorbance of equimolar solutions (Photophysical properties; 5 μM, 10 mM pH 7.4 PBS): greater absorbance than ICG or MHI-148
- fluorescence brightness of equimolar solutions (Photophysical properties; 5 μM, 10 mM pH 7.4 PBS): markedly higher than the other two fluors
- brightness (εmax × Φ) (Photophysical properties; 10 mM PBS buffer pH 7.4): 9901
- εmax (Photophysical properties; 10 mM PBS buffer pH 7.4): 192460 cm^−1M^−1
- brightness compared with 1-CH2 (in words) (Photophysical properties; PBS buffer): brighter dye than 1-CH2
- brightness relative to 1-CH2 (Photophysical properties; PBS, pH 7.4): 2 ×
- quantum yield relative to 1-CH2 (Photophysical properties; PBS, pH 7.4): 2 ×
- shift of absorbance and fluorescence maxima to shorter wavelengths (Photophysical properties; compared with ICG and 1-CH2): ~30 nm
- extinction coefficient compared with 1-CH2 (in words) (Photophysical properties; in PBS buffer and in water): stronger extinction coefficient than 1-CH2
- extinction coefficient relative to 1-CH2 (Photophysical properties; in water): ~3 ×
- photostability (in words) [3]: almost no decomposition after 1 h continuous illumination; also recorded: the most photostable
- photostability (in words) ([3]; listed as 1-NMe2): more stable than 1-CH2; also recorded: significantly more photostable than 1-CH2 or ICG
- localization after time (h) 0.5 ([4]; 0.5 h): golgi
- localization after time (h) 24 ([4]; 24 h): lysosome and ER

Structure (SMILES): CC(=O)c1c(C)c2cnc(Nc3ccc(N4CCN(C(=O)CCCCCN5/C(=C/C=C6\CCCC(/C=C/C7=[N+](CCCCCC(=O)[O-])c8ccccc8C7(C)C)=C6Cl)C(C)(C)c6ccccc65)CC4)cn3)nc2n(C2CCCC2)c1=O [Compound 1b]
- cytotoxicity compared with parent dye, parent kinase inhibitor (and their mixture) [5]: more toxic than 1 and b; also recorded: more toxic than b or 1
- cytotoxicity compared with parent dye, parent kinase inhibitor (and their mixture) (U87-MG cells [6]; U87-MG cells (glioblastoma)): more found to be toxic than individual 1, b or a combination of 1+b; also recorded: significantly more toxic than the parent dye, the parent kinase inhibitor, or a mixture of the dye and kinase inhibitor
- cytotoxicity compared with ICG-COOH conjugate (U87-MG cells [6]; U87-MG, 24 and 48 h): more toxic than ICG-COOH-b
- cytotoxicity compared with parent dye, parent kinase inhibitor (and their mixture) (HEPG2 cells): more found to be toxic than individual 1, b or a combination of 1+b; also recorded: significantly more toxic than the parent dye, the parent kinase inhibitor, or a mixture of the dye and kinase inhibitor
- cytotoxicity compared with parent dye, parent kinase inhibitor (and their mixture) (K562 leukemia cells): more found to be toxic than individual 1, b or a combination of 1+b; also recorded: significantly more toxic than the parent dye, the parent kinase inhibitor, or a mixture of the dye and kinase inhibitor
- uptake by U87-MG cells compared to HUVEC [7]: localizes more in U87-MG cells than HUVEC cells

Structure (SMILES): CC1(C)C(=CC=C2CCCC(C=CC3=[N+](CCCCCC(=O)O)c4ccc(I)cc4C3(C)C)=C2Cl)N(CCCCCC(=O)O)c2ccc(I)cc21 [Compound 2aa]
- phototoxic effect on normal cells (HUVEC): does not significantly kill normal cells
- light versus dark toxicity ([8]; 1, 2, 4 and 6 h incubation, 10 mins irradiation): Light toxicity was more than light in every case
- light versus dark toxicity ([8]; 1 h incubation, irradiation 5, 10, 15, 20 minutes): kills the cells more in light than in dark
- uptake by U87-MG cells compared to HUVEC [7]: the cancer cells uptake more of the compound
